The test deals with T1, Gal4-HNF4α (human HNF4α LBD) (Homo sapiens, UniProt P41235).
T1 construct: uniprot entry: P41235-1, residues 142-377; expressed in transfected cells; host or cells: HEK293T
T1 sequence (P41235 142-377): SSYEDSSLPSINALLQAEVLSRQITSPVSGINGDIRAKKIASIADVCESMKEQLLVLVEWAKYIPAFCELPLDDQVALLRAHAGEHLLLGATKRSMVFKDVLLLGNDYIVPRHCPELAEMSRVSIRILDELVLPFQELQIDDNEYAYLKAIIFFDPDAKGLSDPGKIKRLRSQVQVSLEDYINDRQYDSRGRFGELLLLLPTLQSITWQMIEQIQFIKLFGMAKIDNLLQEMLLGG
The test is described as follows: Hybrid Gal4-HNF4α reporter gene assay in transiently transfected HEK293T cells. The class given is cell-based. The conditions noted are these: Table S1, primary screening, 50 µM.

Where “and” joins values, the source holds several entries; their conditions need not be identical. Identical values can stand only once.

Results on 64 molecules are retold here after publication PMC7660650, “Chemical Starting Matter for HNF4α Ligand Discovery and Chemogenomics” (International Journal of Molecular Sciences, 2020).

Regarding `COC(=O)C(CO)c1ccccc1` (stereo not shown) [Prestw-Frag-1406, COC(=O)C(CO)c1ccccc1], the “HNF4a-screening_activity_(mean_of_n=2)” value is 0.9811 and 0.9479.

For `Nc1ccnn1-c1ccccc1` [Prestw-Frag-1648, Nc1ccnn1-c1ccccc1], the “HNF4a-screening_activity_(mean_of_n=2)” value is 1.023. Regarding `COc1ccc(CNc2ncccn2)cc1` [Prestw-Frag-1358, COc1ccc(CNc2ncccn2)cc1], the “HNF4a-screening_activity_(mean_of_n=2)” value is 0.8945 and 1.199. As for `OC(c1ccc(Cl)cc1)c1ccccn1` (stereo not shown) [Prestw-Frag-1346, OC(c1ccc(Cl)cc1)c1ccccn1], the figure is 0.8912; as for `Clc1cccc2ncccc12` [Prestw-Frag-2593, Clc1cccc2ncccc12], 0.9438; as for `Oc1cccc2c1CCCC2` [Prestw-Frag-1156, Oc1cccc2CCCCc12], 0.9426. Turning to `CCC(=O)Nc1ncnc2[nH]cnc12` [Prestw-Frag-1047, CCC(=O)Nc1ncnc2[nH]cnc12], the “HNF4a-screening_activity_(mean_of_n=2)” value was 0.8266 and 1.023. On to `c1ccc(-c2ccccc2-c2nnn[nH]2)cc1` [Prestw-Frag-1441, c1ccc(cc1)-c1ccccc1-c1nnn[nH]1], for which the “HNF4a-screening_activity_(mean_of_n=2)” value is 1.051 and 0.7815. Take `CN1CCN(c2nccc(N)n2)CC1` [Prestw-Frag-1204, CN1CCN(CC1)c1nccc(N)n1]: the “HNF4a-screening_activity_(mean_of_n=2)” value is reported as 1.248. In the case of `c1ccc(-n2ccc3ccccc32)cc1` [Prestw-Frag-3011, c1cc2ccccc2n1-c1ccccc1], the “HNF4a-screening_activity_(mean_of_n=2)” value was found to be 0.7452. As for `CC(C)(Oc1ccccc1)C(=O)O` [Prestw-Frag-1053, CC(C)(Oc1ccccc1)C(O)=O], the figure is 0.9983 and 1.387.

For the molecule `Sc1nc2ccccc2[nH]1` [Prestw-Frag-2539, Sc1nc2ccccc2[nH]1], the “HNF4a-screening_activity_(mean_of_n=2)” value is 1.302. In the case of `Oc1ccccc1C1CCCC1` [Prestw-Frag-2706, Oc1ccccc1C1CCCC1], the “HNF4a-screening_activity_(mean_of_n=2)” value stood at 0.8607. For `O=C1c2ccccc2CN1c1ccccc1` [Prestw-Frag-2360, O=C1N(Cc2ccccc12)c1ccccc1], the “HNF4a-screening_activity_(mean_of_n=2)” value was found to be 1.345.

As to `NC(=O)NS(=O)(=O)c1ccccc1` [Prestw-Frag-1006, NC(=O)NS(=O)(=O)c1ccccc1], the “HNF4a-screening_activity_(mean_of_n=2)” value was 1.153 and 1.01. Regarding `COc1cc2c(cc1OC)CC(=O)NCC2` [Prestw-Frag-3698, COc1cc2CCNC(=O)Cc2cc1OC], the “HNF4a-screening_activity_(mean_of_n=2)” value worked out at 1.019. As for `O=[N+]([O-])c1ccc(CO)cc1` [Prestw-Frag-1071, OCc1ccc(cc1)[N+]([O-])=O], the figure is 1.036 and 1.173; as for `CS(=O)(=O)Nc1ccccc1` [Prestw-Frag-2755, CS(=O)(=O)Nc1ccccc1], 0.9874; as for `Nc1ccccc1S(N)(=O)=O` [Prestw-Frag-2473, Nc1ccccc1S(N)(=O)=O], 1.395. As to `c1cnc2[nH]ncc2c1` [Prestw-Frag-1428, c1n[nH]c2ncccc12], the “HNF4a-screening_activity_(mean_of_n=2)” value is listed as 1.325. Under `COc1ccc(C(C)=O)c(O)c1` [Prestw-Frag-2701, COc1ccc(C(C)=O)c(O)c1] stands 1.01; under `N#CCC(=O)N1CCCCC1` [Prestw-Frag-3730, O=C(CC#N)N1CCCCC1], 0.9277; under `Cc1cccc(Nc2ccccc2C(=O)O)c1` [Prestw-Frag-1320, Cc1cccc(Nc2ccccc2C(O)=O)c1], 0.7946 and 1.022. In the case of `O=C(CCCN1CCNCC1)c1ccc(F)cc1` [Prestw-Frag-3426, Fc1ccc(cc1)C(=O)CCCN1CCNCC1], the “HNF4a-screening_activity_(mean_of_n=2)” value is given as 1.191. As for `c1cc2c(cc1CN1CCNCC1)OCO2` [Prestw-Frag-1397, C(N1CCNCC1)c1ccc2OCOc2c1], the “HNF4a-screening_activity_(mean_of_n=2)” value is on record as 1.012. Take `Cn1cc(CC(=O)O)c2ccccc21` [Prestw-Frag-3461, Cn1cc(CC(O)=O)c2ccccc12]: the “HNF4a-screening_activity_(mean_of_n=2)” value is given as 1.168. As for `CC(C(=O)O)c1cccc(F)c1` (stereo not shown) [Prestw-Frag-3706, CC(C(O)=O)c1cccc(F)c1], the figure is 1.072; as for `OCc1ccc2c(c1)OCO2` [Prestw-Frag-3741, OCc1ccc2OCOc2c1], 1.114; as for `CNCCN(C)C(c1ccccc1)c1ccccc1` [Prestw-Frag-3452, CNCCN(C)C(c1ccccc1)c1ccccc1], 1.151. With `NC1CCC(=O)NC1=O` (stereo not shown) [Prestw-Frag-3716, NC1CCC(=O)NC1=O], the “HNF4a-screening_activity_(mean_of_n=2)” value was 1.139. `CNC(=O)c1c(OC)ccc(Br)c1OC` [Prestw-Frag-3704, CNC(=O)c1c(OC)ccc(Br)c1OC]: the “HNF4a-screening_activity_(mean_of_n=2)” value is reported as 1.072.

Regarding `Fc1ccc(CN2CCNCC2)cc1` [Prestw-Frag-3673, Fc1ccc(CN2CCNCC2)cc1], the “HNF4a-screening_activity_(mean_of_n=2)” value is 1.124.

Turning to `CC(=O)c1cc(Cl)ccc1O` [Prestw-Frag-1083, CC(=O)c1cc(Cl)ccc1O], the “HNF4a-screening_activity_(mean_of_n=2)” value worked out at 1.17. On to `O=C1Nc2ccccc2Nc2ccccc21` [Prestw-Frag-1904, O=C1Nc2ccccc2Nc2ccccc12], for which the “HNF4a-screening_activity_(mean_of_n=2)” value is 1.665 and 0.9141. As for `Nc1cccc(C(F)(F)F)c1` [Prestw-Frag-1322, Nc1cccc(c1)C(F)(F)F], the “HNF4a-screening_activity_(mean_of_n=2)” value is 0.9015. Consider `O=C(O)c1ccccc1O` [Prestw-Frag-1045, OC(=O)c1ccccc1O], for which the “HNF4a-screening_activity_(mean_of_n=2)” value is given as 1.058.

`O=C(O)C(CO)c1ccccc1` (stereo not shown) [Prestw-Frag-1686, OCC(C(O)=O)c1ccccc1]: the “HNF4a-screening_activity_(mean_of_n=2)” value turned out to be 1.109. As for `O=C(O)c1cccnc1Nc1ccccc1` [Prestw-Frag-1191, OC(=O)c1cccnc1Nc1ccccc1], the “HNF4a-screening_activity_(mean_of_n=2)” value was determined as 1.24. Consider `NCC1(c2ccccc2)CC1` [Prestw-Frag-3751, NCC1(CC1)c1ccccc1], for which the “HNF4a-screening_activity_(mean_of_n=2)” value is 0.9761. As to `NCc1c(N)ccc(Cl)c1Cl` [Prestw-Frag-1039, NCc1c(N)ccc(Cl)c1Cl], the “HNF4a-screening_activity_(mean_of_n=2)” value is 1.196 and 1.044. Consider `Cc1ccc(S(=O)(=O)NC(N)=O)cc1` [Prestw-Frag-1667, Cc1ccc(cc1)S(=O)(=O)NC(N)=O], for which the “HNF4a-screening_activity_(mean_of_n=2)” value was 1.077.

Turning to `CCN(Cc1ccccc1)c1ccccc1` [Prestw-Frag-1121, CCN(Cc1ccccc1)c1ccccc1], the “HNF4a-screening_activity_(mean_of_n=2)” value is given as 1.173. As for `O=C(O)c1cccc(-c2ccc(F)cc2F)c1` [Prestw-Frag-1238, OC(=O)c1cccc(c1)-c1ccc(F)cc1F], the “HNF4a-screening_activity_(mean_of_n=2)” value was determined as 1.01. For `CCCC(=O)Nc1ccc(O)c(C(C)=O)c1` [Prestw-Frag-1716, CCCC(=O)Nc1ccc(O)c(c1)C(C)=O], the “HNF4a-screening_activity_(mean_of_n=2)” value is reported as 0.8359. As for `NC(=O)c1ccncc1` [Prestw-Frag-2587, NC(=O)c1ccncc1], the figure is 0.9347. Under `Nc1nc2c(s1)CCCC2` [Prestw-Frag-2972, Nc1nc2CCCCc2s1] stands 1.123; under `Cc1cc(-c2ccccc2)nnc1N` [Prestw-Frag-1003, Cc1cc(nnc1N)-c1ccccc1], 1.014 and 1.217; under `C(=C\c1ccccc1)/CN1CCNCC1` [Prestw-Frag-1163, C(\C=C\c1ccccc1)N1CCNCC1], 1.316. With `Nc1ccc(CS(=O)(=O)N2CCCC2)cc1` [Prestw-Frag-3341, Nc1ccc(CS(=O)(=O)N2CCCC2)cc1], the “HNF4a-screening_activity_(mean_of_n=2)” value worked out at 1.256.

Take `O=C1CCc2ccc(O)cc2N1` [Prestw-Frag-2854, Oc1ccc2CCC(=O)Nc2c1]: the “HNF4a-screening_activity_(mean_of_n=2)” value came out at 1.013.

Regarding `c1ccc(CC2NCCc3ccccc32)cc1` (stereo not shown) [Prestw-Frag-1444, C(C1NCCc2ccccc12)c1ccccc1], the “HNF4a-screening_activity_(mean_of_n=2)” value amounted to 1.349. For `O=C1COc2cc(O)ccc21` [Prestw-Frag-3703, Oc1ccc2C(=O)COc2c1], the “HNF4a-screening_activity_(mean_of_n=2)” value worked out at 1.217. Consider `COc1cc2ccncc2cc1OC` [Prestw-Frag-1183, COc1cc2ccncc2cc1OC], for which the “HNF4a-screening_activity_(mean_of_n=2)” value turned out to be 1.218. With `O=C(O)CC(c1ccccc1)c1ccccc1` [Prestw-Frag-3250, OC(=O)CC(c1ccccc1)c1ccccc1], the “HNF4a-screening_activity_(mean_of_n=2)” value is on record as 1.055. As to `CN1CCc2cccc(N)c2C1` [Prestw-Frag-1553, CN1CCc2cccc(N)c2C1], the “HNF4a-screening_activity_(mean_of_n=2)” value is 1.039 and 1.009. `CCOC(=O)C1c2ccccc2Oc2ccccc21` [Prestw-Frag-1348, CCOC(=O)C1c2ccccc2Oc2ccccc12]: the “HNF4a-screening_activity_(mean_of_n=2)” value was 0.8228.

As to `COc1cc(N)ncn1` [Prestw-Frag-1154, COc1cc(N)ncn1], the “HNF4a-screening_activity_(mean_of_n=2)” value was 1.214. Take `CCNC(=O)c1ccc(Cl)cc1` [Prestw-Frag-2818, CCNC(=O)c1ccc(Cl)cc1]: the “HNF4a-screening_activity_(mean_of_n=2)” value was determined as 0.8348. In the case of `O=C(O)CC1CCCCC1` [Prestw-Frag-3668, OC(=O)CC1CCCCC1], the “HNF4a-screening_activity_(mean_of_n=2)” value is on record as 0.9215.

For `c1ccc(C2CCNCC2)cc1` [Prestw-Frag-2537, C1CC(CCN1)c1ccccc1], the “HNF4a-screening_activity_(mean_of_n=2)” value is recorded as 0.9586. Consider `NC(=O)Cc1ccccc1` [Prestw-Frag-2580, NC(=O)Cc1ccccc1], for which the “HNF4a-screening_activity_(mean_of_n=2)” value was determined as 0.9823. In the case of `O=C(O)CNC(=O)c1ccccc1` [Prestw-Frag-2576, OC(=O)CNC(=O)c1ccccc1], the “HNF4a-screening_activity_(mean_of_n=2)” value is 1.001.

In the case of `Clc1ccc2c(c1)Nc1ccccc1CC2` [Prestw-Frag-1101, Clc1ccc2CCc3ccccc3Nc2c1], the “HNF4a-screening_activity_(mean_of_n=2)” value was 2.203. `Nc1ncnc2c1ncn2CCO` [Prestw-Frag-3329, Nc1ncnc2n(CCO)cnc12]: the “HNF4a-screening_activity_(mean_of_n=2)” value was 1.131.
